Experimental data reported in patent US12030897B2, “Pyrrolo[2,1-f][1,2,4]triazine derivatives serving as selective HER2 inhibitors and application thereof” (MEDSHINE DISCOVERY INC., priority 2018, dated 2024).
Read-outs that look alike come from different tables or passages of the source.

Assays:
HER1 (ErbB1) = HER1 (ErbB1) (Homo sapiens (Human), UniProt P00533); experiment: In vitro enzyme activity, HER1 (ErbB1), [γ-33P]ATP filter assay; format: biochemical
Method: The object of this test is to detect the in vitro inhibitory activity of the compound against HER1 (ErbB1), HER2 (ErbB2) and HER4 (ErbB4). The enzymes used in this test were human ErbB1, ErbB2 and ErbB4.
Experimental Steps and Methods (96-Well Plate):
5-fold diluted tested compound buffer (5 μL), peptide substrate poly(Glu, Tyr) (4:1) (2.5 μL), ErbB (4-20 ng, 2.5 μL), MnCl2 (50 mM, 1.25 μL), dH2O (3.75 μL) and [γ-^33P]ATP (10 μL) were added, and incubated at 30° C. for 10 min. 3% phosphoric acid was added to terminate the reaction, and 10 μL of the specimen was transferred to Filtermate A. The filter was washed with 75 mM phosphoric acid for three times and methanol once, and transferred to a sealed plastic bag, and a scintillation fluid mixture (4 mL) was added, The intensity of the emitted photons was detected on the scintillation luminescence counter. The photon intensity of the enzyme sample was compared with the photon intensity of the internal control sample, and the level of photon intensity reflected the strength of the tyrosine kinase activity.

NCI-N87 cell = experiment: Cell proliferation inhibitory activity, Cell-Titer-Glo, NCI-N87; format: cell-based, human; conditions: Homo sapiens, NCI-N87, 72 h; 3 days incubation
Text: (§1) Experiment object: to detect the inhibitory activity of the tested compound on cell proliferation.
(§2) Experimental principle: the luciferase in the Cell-Titer-Glo reagent uses luciferin, oxygen and ATP as reaction substrates to produce oxyluciferin and release energy in the form of light. Since the luciferase reaction requires ATP, the total amount of light produced by the reaction is proportional to the total amount of ATP that reflects cell viability.
(§3) Experimental Materials: • cell lines: NCI-N87 cell line (ATCC-CRL-5822); BT-474 cell line (ATCC-HTB-20) • Cell culture medium: RPMI 1640 medium (Invitrogen #22400-105; 10% serum Invitrogen #10090148; L-glutamine 1×, Gibco #25030-081; double antibody Hyclone #SV30010) • CellTiter-Glo® luminescence cell viability detection kit (Promega #G7573) • 384-well cell culture plate (Greiner #781090) • Compound plate (LABCYTE #LP-0200) • CO2 incubator (Thermo #371) • Vi-cell cell counter (Beckman Coulter) • Pipette (Eppendorf) • Pipette (Greiner) • Pipetting gun (Eppendorf) • Multifunctional microplate reader (Envision Reader) • ECHO Liquid-handling workstation (Labcyte-ECHO555)
(§4) The cells were inoculated in a 384-well plate with a density of 1000 cells per well and 25 μL per well. The edge wells were not inoculated with cells, and was supplemented with 25 μL of phosphate buffer.
(§5) The compound was added to the plate with 9 μL per well.
(§6) (2) The compound was diluted with ECHO liquid-handling workstation, and each well of the cell plate was added with 125 nL of compound. Each well of the cell wells of columns 2 and 23 was added with 125 nL of DMSO, and each well of the Media wells of columns 1 and 24 was added with 125 nL of DMSO.
(§7) (3) Each well of the cell plate was supplemented with 25 μL of culture medium, and the final volume in each well of the cell plate was 50 μL. The concentration of the compound was 10 μM, which was subjected to 3 fold dilution to obtain 10 concentrations. Each concentration was duplicated in left and right wells, and the final DMSO concentration was 0.25%.
(§8) 2.3 After adding the compound, it was centrifuged at 1000 rpm for 1 min. The cell plate was placed in a 37° C., 5% CO2 incubator for 3 days.
(§9) The cell plate was taken from the incubator and equilibrated at room temperature for 30 min. 25 μL of Cell-Titer-Glo reagent was added to each well, shaken for 1 min to make it thoroughly mixed, and centrifuged at 1000 rpm for 1 min. After 10 min, the plate was read on PerkinElmer Envision, and the […] reading time was set to 0.2 seconds.

BT-474 cell = experiment: Cell proliferation inhibitory activity, Cell-Titer-Glo, BT-474; format: cell-based; conditions: Homo sapiens, BT-474, 72 h; 3 days incubation
Text: as §1, §2, §3, §4, §5, §6, §7, §8, §9

[1] = Pharmacokinetic properties in mice; format: in vivo; conditions: female, Balb/c; for clearance / Vd / bioavailability: plasma, mouse; for Vd: read-out: Vdss; for bioavailability: read-out: F (bioavailability); for AUC(0-inf) / AUC(0-t) / half-life / Cmax: mouse plasma
Method: The tested compound was dissolved in 10% DMSO/45% PEG400/45% water, vortexed and sonicated to prepare a clear solution with the corresponding concentration, which was filtered through a millipore filter for use. 18 to 20 grams of Balb/c female mice were selected, and the candidate compound solution was administered intravenously at a dose of 1 or 2 mg/kg. The tested compound was dissolved in 10% NMP/10% polyethylene glycol-15-hydroxystearate/80% water, vortexed and sonicated to prepare a clear solution with the corresponding concentration, which was filtered through a millipore filter for use. 18 to 20 grams of Balb/c female mice were selected, and the candidate compound solution was administered orally at a dose of 2 or 10 mg/kg. The whole-blood for a certain period of time was collected to prepare plasma. The drug concentration was analyzed by the LC-MS/MS method, and the pharmacokinetic parameters were calculated by the Phoenix WinNonlin software (Pharsight, USA).

[2] = Concentration of Example 4 in plasma, tumor tissue and brain tissue (NCI-N87 model, day 21); format: in vivo, BALB/c nude mice; conditions: BALB/c nude, mouse, 100 mg/kg; for concentration at 0.5 h: day 21, 0.5 h after last administration; for concentration at 1 h: day 21, 1 h after last administration; for concentration at 2 h: day 21, 2 h after last administration
Method: On day 21, the whole blood, tumor tissue, and brain tissue of two mice were collected 0.5 hour, 1 hour, and 2 hours after the last administration. The whole blood was centrifuged to prepare plasma, and the tumor tissue and brain tissue were homogenized to prepare tissue homogenate, and the drug concentration in plasma and tissue homogenate was analyzed by the LC-MS/MS method.

[3] = brain tissue, read-out: Drug concentration, brain tissue
[4] = plasma, read-out: Drug concentration, plasma
[5] = tumor tissue, read-out: Drug concentration, tumor tissue

HER1 (ErbB1), sequence (P00533 25-1210): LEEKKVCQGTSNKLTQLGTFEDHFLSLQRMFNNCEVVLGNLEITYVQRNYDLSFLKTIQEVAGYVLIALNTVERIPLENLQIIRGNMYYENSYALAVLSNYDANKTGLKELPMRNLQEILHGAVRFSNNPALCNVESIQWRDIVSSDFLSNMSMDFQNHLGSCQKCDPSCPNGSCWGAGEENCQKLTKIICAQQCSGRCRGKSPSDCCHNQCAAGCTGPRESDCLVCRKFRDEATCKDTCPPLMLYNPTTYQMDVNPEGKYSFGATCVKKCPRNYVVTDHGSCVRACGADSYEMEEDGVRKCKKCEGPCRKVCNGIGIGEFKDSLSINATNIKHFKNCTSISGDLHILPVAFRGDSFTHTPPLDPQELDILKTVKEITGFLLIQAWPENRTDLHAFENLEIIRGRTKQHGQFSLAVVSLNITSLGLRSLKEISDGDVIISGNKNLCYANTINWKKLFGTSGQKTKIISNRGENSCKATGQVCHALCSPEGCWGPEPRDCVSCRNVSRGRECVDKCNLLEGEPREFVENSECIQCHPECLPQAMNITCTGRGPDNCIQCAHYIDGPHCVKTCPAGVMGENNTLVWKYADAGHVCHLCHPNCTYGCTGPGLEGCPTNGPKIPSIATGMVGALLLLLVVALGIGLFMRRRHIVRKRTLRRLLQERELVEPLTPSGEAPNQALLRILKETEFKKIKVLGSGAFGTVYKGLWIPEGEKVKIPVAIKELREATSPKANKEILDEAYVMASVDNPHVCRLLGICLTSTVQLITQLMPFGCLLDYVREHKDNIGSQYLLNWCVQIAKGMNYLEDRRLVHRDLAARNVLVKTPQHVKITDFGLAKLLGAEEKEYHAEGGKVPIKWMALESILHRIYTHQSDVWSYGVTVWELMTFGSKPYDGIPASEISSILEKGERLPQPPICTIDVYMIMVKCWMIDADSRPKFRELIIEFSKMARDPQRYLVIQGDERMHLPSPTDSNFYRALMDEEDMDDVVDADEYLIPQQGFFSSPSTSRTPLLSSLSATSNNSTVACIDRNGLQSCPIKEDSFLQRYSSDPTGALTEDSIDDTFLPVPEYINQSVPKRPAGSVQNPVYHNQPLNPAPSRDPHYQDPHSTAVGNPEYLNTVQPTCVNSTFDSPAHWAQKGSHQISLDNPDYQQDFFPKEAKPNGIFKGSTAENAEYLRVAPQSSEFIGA

Question: With Cc1cc(Nc2ncnn3ccc(CN4CCC(N)CC4)c23)ccc1Oc1ccn2ncnc2c1 [Example 4] as the molecule, how does the IC50 (HER1 (ErbB1)) read?
Answer: 161 nM

Question: What about the IC50 (NCI-N87 cell) of the same molecule?
Answer: 7 nM

Question: And the IC50 (BT-474 cell)?
Answer: 23 nM

Question: And the clearance ([1]; IV 1 mg/kg)?
Answer: 19.2 mL/min/kg

Question: What about the Vd ([1]; IV 1 mg/kg) of the same molecule?
Answer: 2.3 L/kg

Question: What about the clearance ([1]; IV 2 mg/kg) of the same molecule?
Answer: 33 mL/min/kg

Question: What about the Vd ([1]; IV 2 mg/kg) of the same molecule?
Answer: 2.81 L/kg

Question: What about the bioavailability ([1]; PO 2 mg/kg) of the same molecule?
Answer: 22.7%

Question: And the bioavailability ([1]; PO 10 mg/kg)?
Answer: 40.2%

Question: What about the AUC(0-inf) ([1]; IV 1 mg/kg) of the same molecule?
Answer: 1.57 µM·h

Question: And the AUC(0-t) ([1]; IV 1 mg/kg)?
Answer: 1.52 µM·h

Question: What about the half-life ([1]; IV 1 mg/kg) of the same molecule?
Answer: 1.65 h

Question: And the AUC(0-inf) ([1]; IV 2 mg/kg)?
Answer: 2.15 µM·h

Question: What about the AUC(0-t) ([1]; IV 2 mg/kg) of the same molecule?
Answer: 2.13 µM·h

Question: And the half-life ([1]; IV 2 mg/kg)?
Answer: 1.34 h

Question: What about the AUC(0-inf) ([1]; PO 2 mg/kg) of the same molecule?
Answer: 0.95 µM·h

Question: What about the AUC(0-t) ([1]; PO 2 mg/kg) of the same molecule?
Answer: 0.928 µM·h

Question: What about the Cmax ([1]; PO 2 mg/kg) of the same molecule?
Answer: 0.306 µM

Question: What about the half-life ([1]; PO 2 mg/kg) of the same molecule?
Answer: 1.37 h

Question: What about the AUC(0-inf) ([1]; PO 10 mg/kg) of the same molecule?
Answer: 4.33 µM·h

Question: What about the AUC(0-t) ([1]; PO 10 mg/kg) of the same molecule?
Answer: 4.28 µM·h

Question: What about the Cmax ([1]; PO 10 mg/kg) of the same molecule?
Answer: 1.25 µM

Question: And the half-life ([1]; PO 10 mg/kg)?
Answer: 1.08 h

Question: What about the concentration at 0.5 h [2, 3] of the same molecule?
Answer: 0.538 µM

Question: What about the concentration at 1 h [2, 3] of the same molecule?
Answer: 0.631 µM

Question: And the concentration at 2 h [2, 3]?
Answer: 1.01 µM

Question: What about the concentration at 0.5 h [2, 4] of the same molecule?
Answer: 8.6 µM

Question: And the concentration at 1 h [2, 4]?
Answer: 7.58 µM

Question: And the concentration at 2 h [2, 4]?
Answer: 12.8 µM

Question: What about the concentration at 0.5 h [2, 5] of the same molecule?
Answer: 9.45 µM

Question: And the concentration at 1 h [2, 5]?
Answer: 11.2 µM

Question: And the concentration at 2 h [2, 5]?
Answer: 21.4 µM
